# Measured values: publication PMC10641813 (Journal of Medicinal Chemistry, 2023)
# “And” between values parts separate entries of the source, which are not always exact repeats. Equal entries are not always repeated. Where two headings read alike, the source gives them in different places.
# What was measured:
# [1] = test system: HT29/DX cells; experiment: Viability of HT29/DX cells with DOX alone or coincubated with 15 (WST-1); type: cell-based, human; conditions: 5 μM DOX alone, 72 h
# Protocol: (§1) Cells were seeded in 96-well plates.
# [2] = Viability of MDCK cells with DOX alone or coincubated with 15 (WST-1); type: cell-based, canine; conditions: dog, MDCK cells (sensitive, parental); read-out: cell viability
# Protocol: as §1
# [3] = test system: MDCK/P-gp cells; experiment: Viability of MDCK/P-gp cells with DOX alone or coincubated with 15 (WST-1); type: cell-based, canine; conditions: 5 μM DOX alone, 72 h
# Protocol: as §1
# [4] = biological target: T1, hCA I (Homo sapiens, UniProt P00915); experiment: Stopped flow CO2 hydrase assay, hCA I; type: biochemical; conditions: for Ki: stopped flow technique, mean from three assays; for fold reduction in the inhibition of hCA I: relative to 11 (sulfonamide at para position)
# T1 construct: made in house
# T1 sequence (P00915 whole entry): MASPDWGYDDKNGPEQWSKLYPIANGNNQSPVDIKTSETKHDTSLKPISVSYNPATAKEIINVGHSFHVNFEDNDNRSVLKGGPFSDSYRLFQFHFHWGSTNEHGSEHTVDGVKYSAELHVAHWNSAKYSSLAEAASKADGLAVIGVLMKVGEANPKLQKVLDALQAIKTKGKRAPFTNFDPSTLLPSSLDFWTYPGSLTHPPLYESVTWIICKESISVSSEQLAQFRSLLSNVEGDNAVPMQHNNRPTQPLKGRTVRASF
# [5] = biological target: T2, hCA II (Homo sapiens, UniProt P00918); experiment: Stopped flow CO2 hydrase assay, hCA II; type: biochemical; conditions: stopped flow technique, mean from three assays
# T2 construct: made in house
# [6] = biological target: T3, hCA IX (Homo sapiens, UniProt Q16790); experiment: Stopped flow CO2 hydrase assay, hCA IX; type: biochemical
# T3 construct: made in house
# [7] = test system: tubulin; experiment: Tubulin assembly (polymerization) assay; type: biochemical; conditions: at 20 μM
# Protocol: The reaction mixtures contained 0.8 M monosodium glutamate (pH 6.6 with HCl in a 2 M stock solution), 10 μM tubulin, 4% (v/v) DMSO, and varying concentrations of compound. […] The extent of the reaction was measured.
# [8] = test system: MCF-7 cells; experiment: Inhibition of growth of MCF-7 cells; type: cell-based, human
# Protocol: (§2) ; 11 and 15, NCI/ADR-RES and OVCAR-8 cells) to 4.8 (19, OVCAR-8 cells). […] . […] Cells were seeded in 96-well plates.
# [9] = test system: OVCAR-8 cells; experiment: Inhibition of growth of OVCAR-8 cells; type: cell-based, human; conditions: ovarian tumor cell line 8, 96 h
# Protocol: as §2
# [10] = test system: NCI/ADR-RES cells; experiment: Inhibition of growth of NCI/ADR-RES DOX-resistant cells; type: cell-based, human; conditions: for IC50: DOX-resistant cell line derived from OVCAR-8, 96 h
# Protocol: as §2
# [11] = test system: SW480 cells; experiment: Inhibition of growth of SW480 cells (XTT); conditions: read-out: IC50 SW480; human colorectal carcinoma cells; combinations: each compound at its IC50 concentration
# Protocol: (§3) In drug combination studies, each compound was used at the corresponding IC50 concentration.
# (§4) Cells were grown in Dulbecco’s modified Eagle’s medium (D-MEM) supplemented with 10% fetal bovine serum (FBS) at 37 °C with 5% CO2. In all experiments, 300,000 cells were plated in 9 cm^2 dishes and exposed to test compound dissolved in DMSO (0.1% final concentration) at the indicated concentrations. […] Cells were kept at low passage, returning to the original frozen stocks every 3–4 months.
# [12] = test system: SW620 cells; experiment: Inhibition of growth of SW620 cells (XTT); conditions: read-out: IC50 SW620; human colorectal carcinoma cells; combinations: each compound at its IC50 concentration
# Protocol: as §3, §4
# [13] = test system: HCT116 cells; experiment: Inhibition of growth of HCT116 cells (MTT); conditions: read-out: IC50 HCT116; human colorectal carcinoma cells; combinations: each compound at its IC50 concentration
# Protocol: as §3, §4
# [14] = biological target: T4, hCA XII (Homo sapiens, UniProt O43570); experiment: Stopped flow CO2 hydrase assay, hCA XII; type: biochemical; conditions: stopped flow technique, mean from three assays
# T4 construct: made in house
# T4 sequence (O43570 25-354): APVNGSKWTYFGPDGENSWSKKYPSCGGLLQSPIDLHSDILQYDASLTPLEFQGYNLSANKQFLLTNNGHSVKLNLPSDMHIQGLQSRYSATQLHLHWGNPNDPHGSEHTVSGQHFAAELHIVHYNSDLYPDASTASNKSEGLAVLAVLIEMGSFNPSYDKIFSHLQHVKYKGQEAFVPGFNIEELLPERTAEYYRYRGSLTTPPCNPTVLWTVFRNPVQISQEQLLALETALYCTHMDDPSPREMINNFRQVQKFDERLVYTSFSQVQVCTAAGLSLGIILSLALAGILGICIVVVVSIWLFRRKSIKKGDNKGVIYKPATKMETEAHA
# [15] = test system: NCI/ADR-RES cells; set-up: method as in PMID 22044164; conditions: DOX-resistant cell line; cited from earlier work
# [16] = test system: tubulin; conditions: tubulin assembly; read-out: Tubulin IC50 ± SD; cited from earlier work
# [17] = test system: tubulin; conditions: cited from earlier work
# [18] = human nonmetastatic breast cancer epithelial cells
# [19] = stopped flow technique, mean from three assays
Molecule,Ki [4] [nM],Ki [5] [nM],"Ki [6, 19] [nM]",Ki [14] [nM],other results
"COc1cccc2c1C(=O)c1c(O)c3c(c(O)c1C2=O)C[C@@](O)(C(=O)CO)C[C@@H]3O[C@H]1C[C@H](N)[C@H](O)[C@H](C)O1 [DOX, doxorubicin, reference compound]",,,,,"cell viability [1]: did not affect the viability; viability at 72 h, 5 μM [2]: < 30%; cell viability [3]: did not affect the viability"
"COc1cc(C(=O)c2cn(-c3ccc(S(N)(=O)=O)cc3)c3ccccc23)cc(OC)c1OC [Compound 19, 4-(3-(3,4,5-Trimethoxybenzoyl)-1H-indol-1-yl)benzenesulfonamide]",446,67.8,,,"Ki [6]: 7.3 nM; inhibition of tubulin assembly [7]: partial inhibition; IC50 [8, 18]: 3600 ± 1000 nM; IC50 [9]: 4800 ± 300 nM; IC50 [10]: 2100 ± 200 nM; IC50 [11]: 37400 ± 1400 nM; IC50 [12]: 45400 ± 1700 nM; IC50 [13]: 14900 ± 1300 nM"
"COc1cc(C(=O)c2ccn(-c3cccc(S(N)(=O)=O)c3)c2)cc(OC)c1OC [Compound 12, 3-(3-(3,4,5-Trimethoxybenzoyl)-1H-pyrrol-1-yl)benzenesulfonamide]",644,84.2,34.7,21.3,"fold reduction in the inhibition of hCA I [4]: 6.7 fold; EC50 ([10]; Homo sapiens, NCI/ADR-RES, DOX-resistant cell line): 2100 to 2200 nM"
"COc1cc(C(=O)c2ccn(-c3ccccc3S(N)(=O)=O)c2)cc(OC)c1OC [Compound 13, 2-(3-(3,4,5-Trimethoxybenzoyl)-1H-pyrrol-1-yl)benzenesulfonamide]",5840,888,229,425,fold reduction in the inhibition of hCA I [4]: 61.0 fold
"COc1cc(C(=O)c2cn(-c3cccc(S(N)(=O)=O)c3)c3ccccc23)cc(OC)c1OC [Compound 20, 3-(3-(3,4,5-Trimethoxybenzoyl)-1H-indol-1-yl)benzenesulfonamide]",943,229,69,58.1,
4-(3-Benzoyl-4-phenyl-1H-pyrrol-1-yl)benzenesulfonamide [Compound 14],,,38.6,59.4,
"COc1cc(C(=O)c2cn(-c3ccccc3S(N)(=O)=O)c3ccccc23)cc(OC)c1OC [Compound 21, 2-(3-(3,4,5-Trimethoxybenzoyl)-1H-indol-1-yl)benzenesulfonamide]",> 10000,> 10000,7750,1190,
4-(3-Benzoyl-1H-indol-1-yl)benzenesulfonamide [Compound 18],,,,52,Ki [6]: 31.6 nM
"COc1cc(C(=O)c2cn(-c3cccc(S(N)(=O)=O)c3)cc2-c2ccccc2)cc(OC)c1OC [Compound 16, 3-(3-Phenyl-4-(3,4,5-trimethoxybenzoyl)-1H-pyrrol-1-yl)benzenesulfonamide]",1030,186,39.1,28.9,
"4-(3-(3,4,5-trimethoxybenzoyl)-1H-pyrrol-1-yl)benzenesulfonamide [Compound 11]",,,,11.5,"inhibition of tubulin assembly [7]: did not inhibit tubulin assembly; IC50 [8, 18]: 3900 ± 80 nM; IC50 [9]: 1900 ± 70 nM; IC50 [10]: 1900 nM and 2200 nM"
4-(3-Benzoyl-1H-pyrrol-1-yl)benzenesulfonamide [Compound 10],,,66,47.1,
"COc1ccc(/C=C\c2cc(OC)c(OC)c(OC)c2)cc1O [CSA4, combretastatin A-4, reference compound]",,,,,"IC50 ([8]; Homo sapiens, MCF7, reference compound in the MCF-7 assay): 15 nM"
CCC1=C[C@@H]2CN(C1)Cc1c([nH]c3ccccc13)[C@@](C(=O)OC)(c1cc3c(cc1OC)N(C)[C@H]1[C@@](O)(C(=O)OC)[C@H](OC(C)=O)[C@]4(CC)C=CCN5CC[C@]31[C@@H]54)C2 [vinorelbine],,,,,IC50 [15]: 5000 ± 1000 nM
COc1cc(C(=O)c2cn(-c3ccccc3)cc2-c2ccccc2)cc(OC)c1OC [Compound 3],,,,,IC50 [16]: 1100 nM; inhibition of colchicine binding [17]: 66%
"COc1cc(C(=O)c2cn(-c3ccccc3S(N)(=O)=O)cc2-c2ccccc2)cc(OC)c1OC [Compound 17, 2-(3-Phenyl-4-(3,4,5-trimethoxybenzoyl)-1H-pyrrol-1-yl)benzenesulfonamide]",> 10000,> 10000,8860,1000,
COc1cc(C(=O)c2ccn(-c3ccccc3)c2)cc(OC)c1OC [Compound 2],,,,,IC50 [16]: 1500 nM; inhibition of colchicine binding [17]: 81%
